Measurements: patent US7807711B2, “Medicinal acidic cannabinoids” (priority 2004, dated 2010)
Read-outs that look alike come from different tables or passages of the source.

Key:
recombinant human CB1 = biological target: T1, recombinant human CB1 (Homo sapiens, UniProt P21554); experiment: biochemical; type: binding
T1 construct: expressed in transfected cells; host or cells: Sf9 cells

recombinant human CB2 = biological target: T2, recombinant human CB2 (Homo sapiens, UniProt P34972); experiment: Competitive receptor binding against tritium labelled CP55,940, CB2
T2 construct: expressed in transfected cells; host or cells: Sf9 cells

[1] = tested on: mRNA coding for TNF-alpha; experiment: TNF-alpha mRNA level (RT-PCR) in PHA-stimulated PBMC; type: cell-based; conditions: PBMC stimulated by PHA, incubation 4 days; relative to β-actine
[2] = tested on: mRNA coding for interleukin-10 (IL-10); experiment: IL-10 mRNA level (RT-PCR) in PHA-stimulated PBMC; type: cell-based; conditions: PBMC stimulated by PHA, incubation 4 days; relative to β-actine
[3] = tested on: Experimental Autoimmune Encephalomyelitis; experiment: Mouse model for Experimental Autoimmune Encephalomyelitis; type: in vivo; conditions: SJL mice, day 0-20
Experimental: The effect of purified THC-acid and unheated cannabis extracts were tested in vivo in a mouse model for Experimental Autoimmune Encephalomyelitis.
Between day 0 and day 20 after onset of the disease the mice were treated daily with a specified oral dose of THC-acid or unheated extract according to the following scheme:
Group 1: vehicle (0.2 mL olive oil/day);
Group 2: 1 mg purified THC-acid in 0.2 mL olive oil/day;
Group 3: unheated cannabis extract in 0.2 mL olive oil containing 1 mg THC-acid/day.
1: mild perivascular accumulation
2: mild perivascular accumulation, multi-focal
3: perivascular accumulation, multiple cell layers, multi-focal.

T2 sequence (P34972 whole entry): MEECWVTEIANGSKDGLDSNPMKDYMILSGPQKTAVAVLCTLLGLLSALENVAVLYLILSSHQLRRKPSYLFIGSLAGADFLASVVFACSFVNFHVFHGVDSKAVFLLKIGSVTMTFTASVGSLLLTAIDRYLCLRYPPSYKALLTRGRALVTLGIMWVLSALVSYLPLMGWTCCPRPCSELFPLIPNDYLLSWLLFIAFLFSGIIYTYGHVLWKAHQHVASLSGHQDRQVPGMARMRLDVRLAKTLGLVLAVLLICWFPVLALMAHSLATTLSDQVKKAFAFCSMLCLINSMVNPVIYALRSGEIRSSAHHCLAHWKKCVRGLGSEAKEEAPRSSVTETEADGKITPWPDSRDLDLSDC
T1 sequence (P21554 whole entry): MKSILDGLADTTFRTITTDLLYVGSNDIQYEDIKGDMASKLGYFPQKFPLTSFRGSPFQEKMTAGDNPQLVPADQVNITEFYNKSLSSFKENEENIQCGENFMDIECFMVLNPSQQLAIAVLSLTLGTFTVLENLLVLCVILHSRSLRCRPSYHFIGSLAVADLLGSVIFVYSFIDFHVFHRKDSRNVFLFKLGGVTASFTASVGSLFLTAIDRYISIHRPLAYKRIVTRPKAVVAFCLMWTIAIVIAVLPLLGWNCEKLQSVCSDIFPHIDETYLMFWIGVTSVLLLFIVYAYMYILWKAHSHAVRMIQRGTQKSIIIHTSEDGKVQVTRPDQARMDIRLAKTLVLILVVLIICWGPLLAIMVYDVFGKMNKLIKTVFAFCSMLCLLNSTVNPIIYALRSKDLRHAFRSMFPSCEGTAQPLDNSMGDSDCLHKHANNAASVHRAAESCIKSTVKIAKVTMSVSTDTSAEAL

SMILES | Kd (recombinant human CB1; purified components, Sf9 cells, read-out: Kd CB1) | Kd (recombinant human CB2; purified components, Sf9 cells, read-out: Kd CB2) | level of the pro-inflammatory cytokine TNFα (mRNA) [1] | level of the anti-inflammatory cytokine IL-10 (mRNA) [2] | number of inflammatory cells in the brain stem compared to vehicle ([3]; 1 mg THC-acid/day oral in olive oil, sacrificed after 42 days) | clinical score ([3]; 1 mg THC-acid/day oral, FIG. 4) | Kd (recombinant human CB1) | Kd (recombinant human CB2)
CCCCCc1cc2c(c(O)c1C(=O)O)C1C=C(C)CCC1C(C)(C)O2 (centres unmarked) [THC-A, Δ^9-tetrahydrocannabinolic acid] | > 1000 nM | > 1000 nM | decrease | increase | reduced the number of inflammatory cells in the brain stem significantly | improved the clinical score significantly | – | –
CCCCCc1cc(O)c2c(c1)OC(C)(C)c1ccc(C)cc1-2 [CBN*, cannabinol, reference compound] | – | – | – | – | – | – | 36 nM | 17 nM
